Data reported in patent US4789675A, “1,4-benzoxazine derivatives and pharmaceutical use” (priority 1986, dated 1988).

Experiments:
[1] = Acute toxicity (oral, 7 days observation); conditions: rat, in vivo, male rats, five animals/group, seven days
Excerpt: Male Wister rats aged five weeks (five animals/group) were orally given the test compounds (Example No. 1, 14, 15 and 18) suspended in a 5% solution of gum arabic. Each animal so treated was observed over a period of seven days.

[2] = test system: acute renal failure in rats; test: Effect on acute renal failure in rats (plasma urea nitrogen, BUN); assay type: in vivo, rat; conditions: 1, 3 and 10 mg/kg given orally
Description: Male sprague-Dawley rats, 6 week old, were orally given the compunds or tap water at a volume of 5 ml/kg. After one hour, the animals were anesthetized with sodium pentobarbital. The animals were subjected to laparotomy, and the left renal artery was clamped completely for one hour. The clamp was undone, and the incision was closed. The animals were again given orally the compounds or tap water 20 hours later. Further four hours later, the animals were again anesthetized, and the blood was obtained from the abdominal aorta. The plasma was separated for measurement of urea nitrogen (BUN).

[3] = test system: caffeine-induced contraction of rabbit aorta strip depending on intracellular Ca^++; test: Intracellular Ca++ antagonism: inhibition of caffeine-induced contraction of aorta strip in Ca-free/EGTA solution; conditions: Oryctolagus cuniculus, caffeine 20 mM, Ca++ 0 mM, EGTA 5 mM, read-out: Inhibitory percent (caffeine contraction); for inhibition at 10 µM: compound 10^-5 M
Description: A spiral strip of aorta of a rabbit (2 to 3 mm width, aobut 3 cm length) was allowed to equilibrate by hanging under 2 g force in a Krebs-Henseleitsolution. The solution was saturated with a mixture gas of 97% O2 -3% CO2, which was warmed to 37° C. The strip was moved into another Krebs-Henseleit solution containing Ca^++ OmM and EGTA 5 mM. Five minutes later, caffeine (20 mM) was added to the solution. The resulting contraction of the strip was made as the index of the contraction depending on intracellular Ca^++.

[4] = test system: ischemia-reperfusion-induced ventricular arrhythmia in rats; test: Effect on the ischemia-reperfusion-induced ventricular arrhythmia in rats; assay type: in vivo, rat; conditions: 3, 10, and 20 mg/kg given orally
Description: Male Sprague-Dawley rats, 9 to 10 week old, were orally given the compounds or tap water at a volume of 5 ml/kg. After one hour, the animals were anesthetized with sodium pentobarbital (50 mg/kg, by intraperitoneal injection), and they were subjected to thoractomy under artificial respiration, and the left anterior descending coronary artery was occluded for five minutes. The incidences of ventricular tachycardia, ventricular fibrilation and cardiac arrest for ten minutes after reperfusion of the blood were calculated.

[5] = in vivo; cited from earlier work
intracellular Ca^++ = conditions: (2) Ca++ liberated from intracellular store; (3) influx through receptor-operated channel; cited from earlier work
[6] = cited from earlier work

Compound	inhibition at 10 µM [3]	side effects [5]	action on intracellular Ca++ (intracellular Ca^++)	other results
O=C1Nc2cc3c(cc2OC1CCCN1CCN(c2ccc(F)cc2)CC1)CCCC3 (stereo not shown) [Example 1, 2-{3-[4-(4-fluorophenyl)-1-piperazinyl]propyl}-6,7,8,9-tetrahydro-2H-naphtho[2,3-b][1,4]oxazin-3(4H)-one]	87%	–	–	LD50 at 168 h [1]: ≥ 300 mg/kg; increase in BUN [2]: inhibited the increase in BUN; inhibition at 1 µM ([3]; compound 10^-6 M): 60%; incidences of cardiac functional abnormalities [4]: inhibited the incidences of cardiac functional abnormalities in a dose-dependent manner
CN1CCN(CCCN2c3ccccc3Sc3ccc(C(F)(F)F)cc32)CC1 [trifluoperazine]	–	side effects e.g. on the central nervous system	showing antagonism against intracellular Ca^++	–
COC(=O)C1=C(C)NC(C)=C(C(=O)OC)C1c1ccccc1[N+](=O)[O-] [nifedipine]	–	–	hardly acts on (2) and (3)	–
COc1cc2nc(N3CCN(C(=O)c4ccco4)CC3)nc(N)c2cc1OC [prazosin]	–	orthostatic hypotension often observed	–	–
CCN(CC)CCCCCCCCOC(=O)c1cc(OC)c(OC)c(OC)c1 [TMB-8]	48%	–	weak in action	antihypertensive action in vivo [6]: do not display antihypertensive action in vivo
NCCCCCCNS(=O)(=O)c1cccc2c(Cl)cccc12 [Example W-7]	–	–	weak in action	–
